{
  "source": "patent US20110093959A1",
  "about": "“CRYPTOTIS PARVA SCREENING MODEL FOR ANTIEMETIC POTENTIAL” (priority 2008, published 2011)",
  "system": "5-HT, 5-HIAA, dopamine and HVA tissue levels",
  "experiment": "Monoamine and metabolite tissue levels after CIS (HPLC-ECD)",
  "format": "in vivo, Cryptotis parva",
  "details": "for increase in brainstem 5-HT tissue level vs vehicle: CIS 10 mg/kg i.p.; for frontal cortex 5-HIAA level: not significantly different from vehicle",
  "experimental": "These parameters were used in our neurochemical studies. Prior to experimentation, shrews were habituated to the laboratory environment as described for the behavioral studies. […] Subgroups of each treatment were sacrificed by rapid decapitation at either 2 hr or 33 hr post-injection.\nBrains were rapidly removed and dissected on an ice-cold petri dish, the frontal cortex and brainstem were immediately frozen on dry-ice and stored at […] until analysis. Likewise, each gut was rapidly removed and washed with ice-cold saline three times prior to sectioning into succeeding 2 cm portions starting from the end of the stomach (duodenal and jejunal sections, respectively), followed by rapid freezing as described above. Each frontal cortex, brainstem and intestinal sample was respectively homogenized (tissue tearer, setting 5 sec for 15 sec) in 1 ml, 2 ml, or 3 ml ice-cold 0.2 M perchloric acid respectively containing 0.3 M ethylenediamine-tetraacetic acid disodium (EDTA). A 0.1 ml portion of each homogenate was removed for protein analysis. The protein concentration was determined by the use of BCA protein assay kit (Pierce; Rockford, Ill.). Then, homogenates were centrifuged at 40,000 g for 30 min at 4° C. to precipitate protein. The supernatant was filtered through a 0.2 μm nylon filter in a microcentrifuge tube at 1,500 g for 10 min at 4° C. A 10 μl aliquot of each filtered supernatant was assayed for the presence of monoamines and their metabolites.\nMonoamines and their metabolites were analyzed by high performance liquid chromatography with electrochemical detection (HPLC-ECD) based upon our established method (Darmani et al., 2003). Separation of 5-HT, dopamine and their corresponding metabolites (5-HIAA and HVA) from other electroactive compounds was achieved on a 10 cm×3.2 mm RP-C18 column (ODS 3 um packing; BAS Inc., W. Lafayette, Ind.) and a mobile phase containing 0.15 M chloroacetic acid, 0.12 M sodium hydroxide, 0.18 mM ethylenediamine-tetraacetic acid disodium (EDTA), 1.1 mM sodium octane sulfonic acid and 5% acetonitrile. The monoamines and their metabolites were separated and measured through the cited column via a Shumadzu L-ECD-6A detector, connected to a Shimadzu LC-10 AD pump and a C-R7Ae chromatopac integrator (Kyoto, Japan). The glassy carbon working electrode was set at a potential of 650 mV relative to an Ag/AgCl reference electrode. The detection limit for dopamine and 5-HT were 2 and 5 pg respectively, based on a signal to noise ratio of 3:1. Peak heights of unknowns were compared to the mean peak heights of a 200 pg standard solution (containing 5-HT, dopamine, 5-HIAA and HVA) which were run daily after every fifth tissue supernatant sample. The intestinal HVA concentrations could not be determined due to an unknown interfering peak in the gut tissue eluates.\nWhen a significant dose and exposure interaction was found, then simple effects at a particular emesis phase was tested via a one-way ANOVA. Neurochemical data were initially analyzed by two-way analysis of variance (ANOVA) with drug dose (0 mg/kg and 10 mg/kg) and exposure time (2 hr and 33 hr) as factors. […] For each statistical test, a P value of<0.05 was necessary to achieve statistical significance.",
  "key": {"[1]": {"details": "CIS 0 and 10 mg/kg, 2 and 33 hour"}},
  "note": "“And” between values parts separate entries of the source, which are not always exact repeats. Equal values may be shown once.",
  "data": [
    {"compound": "N.N.[Cl][Pt][Cl]", "note": "[CIS, cis-platinum(II)diamine dichloride]", "values": [
      {"measurement": "brainstem dopamine levels", "setting": "[1]", "value": "no overall significant effect"},
      {"measurement": "duodenum dopamine levels", "setting": "[1]", "value": "no overall significant effect"},
      {"measurement": "frontal cortex serotonin levels", "setting": "[1]", "value": "no significant overall effect"},
      {"measurement": "duodenal tissue concentration of 5-HIAA", "setting": "CIS 10 mg/kg", "value": "not significantly altered"},
      {"measurement": "increase in jejunal dopamine concentration", "setting": "CIS 10 mg/kg at 33 hour vs 0 mg/kg control at 2 hour", "value": 121, "unit": "%"},
      {"measurement": "increase in jejunal dopamine concentration", "setting": "CIS 10 mg/kg at 33 hour vs 0 mg/kg control at 33 hour", "value": 171, "unit": "%"},
      {"measurement": "frontal cortex HVA at 33 hour less than at 2 hour", "setting": "CIS 10 mg/kg dose", "value": 32.4, "unit": "%"},
      {"measurement": "jejunal 5-HT at 2 hour smaller than at 33 hours", "setting": "CIS 10 mg/kg dose", "value": 114.5, "unit": "%"},
      {"measurement": "brainstem 5-HT level at 33 hour greater than at 2 hour", "setting": "CIS 10 mg/kg group", "value": 33.9, "unit": "%"},
      {"measurement": "brainstem HVA at 33 hour greater than at 2 hour", "setting": "CIS 10 mg/kg group", "value": 37, "unit": "%"},
      {"measurement": "increase in brainstem 5-HT tissue level vs vehicle", "setting": "2 hour", "value": 68.2, "unit": "%"},
      {"measurement": "increase in brainstem 5-HT tissue level vs vehicle", "setting": "33 hour", "value": 25, "unit": "%"},
      {"measurement": "duodenal 5-HT concentrations", "setting": "CIS 10 mg/kg, 2 and 33 hour", "value": "not significantly altered"},
      {"measurement": "frontal cortex dopamine tissue level vs control", "setting": "CIS 10 mg/kg, 2 hour", "value": "significant increase"},
      {"measurement": "increase in brainstem 5-HIAA level vs vehicle", "setting": "CIS 10 mg/kg, 2 hour", "value": 43.8, "unit": "%"},
      {"measurement": "increase in brainstem HVA levels vs control", "setting": "CIS 10 mg/kg, 2 hour", "value": 65.5, "unit": "%"},
      {"measurement": "increase in jejunal 5-HIAA concentration vs control", "setting": "CIS 10 mg/kg, 2 hour", "value": 32.4, "unit": "%"},
      {"measurement": "reduction of jejunal 5-HT tissue concentration vs control", "setting": "CIS 10 mg/kg, 2 hour", "value": 49.1, "unit": "%"},
      {"measurement": "frontal cortex 5-HIAA level", "setting": "CIS 10 mg/kg, 2 hour", "value": "1.1±0.07"},
      {"measurement": "decrease in frontal cortex HVA concentration vs vehicle", "setting": "CIS 10 mg/kg, 33 hour", "value": 35.9, "unit": "%"},
      {"measurement": "increase in brainstem 5-HIAA level vs vehicle", "setting": "CIS 10 mg/kg, 33 hour", "value": 26.7, "unit": "%"},
      {"measurement": "increase of jejunal 5-HT tissue concentration vs control", "setting": "CIS 10 mg/kg, 33 hour", "value": "~50% and 41.8%"},
      {"measurement": "frontal cortex 5-HIAA level", "setting": "CIS 10 mg/kg, 33 hour", "value": "0.91±0.11"},
      {"measurement": "increase in brainstem HVA levels vs control", "setting": "CIS 10 mg/kg, 33 hours", "value": 27.7, "unit": "%"},
      {"measurement": "duodenal 5-HT at 33 hours greater than at 2 hour", "setting": "CIS-treated animals", "value": 48.5, "unit": "%"},
      {"measurement": "brainstem 5-HIAA at 33 hour greater than at 2 hour", "setting": "CIS-treated group", "value": 49.2, "unit": "%"}
    ]}
  ]
}
